The values below come from patent US20090275780A1, “PROCESS FOR CONTROLLING THE PARTICLE SIZE OF A 3-(TRIFLUOROMETHYL)PHENYL]-1-AMINOPROPANE DERIVATIVE” (MEDICHEM, S.A., priority 2008, published 2009).

A short description of the series: Particle size distribution by Malvern Mastersizer S particle size analyzer. The class given is physicochemical. Particulars: for particle size D[v, 0.5] / particle size D[v, 0.9]: crystals as isolated after crystallization from isobutyl acetate and drying, by volume, mean of nine readings, hydrochloride; for AFTER MILLING D[v, 0..5] / AFTER MILLING D[v, 0.9]: after milling 1 hour, Specac Specamill, three agate balls, maximum amplitude; for BEFORE MILLING D[v, 0.9]: in µm (unit assumed). The protocol:
The particle size for cinacalcet hydrochloride was measured using a Malvern Mastersizer S particle size analyzer with an MS1 Small Volume Sample Dispersion Unit stirred cell. A 300RF mm lens and a beam length of 2.4 mm were used. Samples for analysis were prepared by dispersing a weighed amount of cinacalcet hydrochloride (approximately 60 mg) in 20 mL of sample dispersant, previously prepared by dilution of 1.5 g of Soybean Lecithin to 200 mL with Isopar G. The suspension was delivered drop-wise to the background-corrected measuring cell filled with dispersant (Isopar G) until the obscuration reached the desired level. Nine repeated readings of the volume distributions were taken. For characterization, the values of D50 and D90 (by volume) were selected and reported as the mean of the nine values measured.

Setting [1] is: listed as Cinacalcet hydrochloride from Example 4, hydrochloride.
Where [2] appears, read: listed as Cinacalcet hydrochloride from Example 7, hydrochloride.
Where [3] appears, read: listed as Cinacalcet hydrochloride from Example 9, hydrochloride.

Take `C[C@@H](NCCCc1cccc(C(F)(F)F)c1)c1cccc2ccccc12.Cl` [Example 1, cinacalcet hydrochloride]: the “particle size D[v, 0.5]” value is listed as 23.4 μm and the “particle size D[v, 0.9]” value is reported as 95.4 μm.

On to `C[C@@H](NCCCc1cccc(C(F)(F)F)c1)c1cccc2ccccc12.Cl` [Example 2, cinacalcet hydrochloride], for which the “particle size D[v, 0.5]” value was 20.7 μm and the “particle size D[v, 0.9]” value amounted to 86.1 μm.

Regarding `C[C@@H](NCCCc1cccc(C(F)(F)F)c1)c1cccc2ccccc12.Cl` [Example 3, cinacalcet hydrochloride], the “particle size D[v, 0.5]” value came out at 49.8 μm and the “particle size D[v, 0.9]” value came out at 387.9 μm.

`C[C@@H](NCCCc1cccc(C(F)(F)F)c1)c1cccc2ccccc12.Cl` [Example 4, cinacalcet hydrochloride]: the “particle size D[v, 0.5]” value amounted to 57.7 μm and the “particle size D[v, 0.9]” value is reported as 403.9 μm. Moreover, under setting [1], the AFTER MILLING D[v, 0..5] is 25.7 µm; the AFTER MILLING D[v, 0.9] was 91.8 µm; the BEFORE MILLING D[v, 0..5] is 57.7 µm; the “BEFORE MILLING D[v, 0.9]” value is recorded as 403.9.

As to `C[C@@H](NCCCc1cccc(C(F)(F)F)c1)c1cccc2ccccc12.Cl` [Example 5, cinacalcet hydrochloride], the “particle size D[v, 0.5]” value stood at 76.4 μm and the “particle size D[v, 0.9]” value was found to be 456.0 μm.

`C[C@@H](NCCCc1cccc(C(F)(F)F)c1)c1cccc2ccccc12.Cl` [Example 6, cinacalcet hydrochloride]: the “particle size D[v, 0.5]” value was determined as 65.0 μm and the “particle size D[v, 0.9]” value came out at 392.3 μm.

Turning to `C[C@@H](NCCCc1cccc(C(F)(F)F)c1)c1cccc2ccccc12.Cl` [Example 7, cinacalcet hydrochloride], the “particle size D[v, 0.5]” value was determined as 70.3 μm and the “particle size D[v, 0.9]” value was 431.7 μm. Under setting [2], the AFTER MILLING D[v, 0..5] is 21.2 µm; the AFTER MILLING D[v, 0.9] is 83.3 µm; the BEFORE MILLING D[v, 0..5] was 70.3 µm; the “BEFORE MILLING D[v, 0.9]” value is listed as 431.7.

As for `C[C@@H](NCCCc1cccc(C(F)(F)F)c1)c1cccc2ccccc12.Cl` [Example 8, cinacalcet hydrochloride], the “particle size D[v, 0.5]” value amounted to 67.2 μm and the “particle size D[v, 0.9]” value is reported as 459.0 μm.

As for `C[C@@H](NCCCc1cccc(C(F)(F)F)c1)c1cccc2ccccc12.Cl` [Example 9, cinacalcet hydrochloride], the “particle size D[v, 0.5]” value is reported as 74.0 μm and the “particle size D[v, 0.9]” value is listed as 518.3 μm. Also, under setting [3], the AFTER MILLING D[v, 0..5] was 25.1 µm; the AFTER MILLING D[v, 0.9] is 76.7 µm; the BEFORE MILLING D[v, 0..5] was 74 µm; the “BEFORE MILLING D[v, 0.9]” value is 518.3.

For `C[C@@H](NCCCc1cccc(C(F)(F)F)c1)c1cccc2ccccc12.Cl` [Example 11, cinacalcet hydrochloride], the “particle size D[v, 0.5]” value was 99.8 μm and the “particle size D[v, 0.9]” value was found to be 466.9 μm.
